Assay results published in publication PMC10783051 (Microbiology Spectrum, 2023).

Key:
[1] = test system: Streptomyces venezuelae ATCC 10712; assay: In planta co-inoculation on tomato roots, UPLC-MS of rhizosphere extracts; settings: tomato roots on Hoagland agar, 7 days at 22°C, UPLC-MS of agar near the roots, four biological replicates
Method: For the in planta studies, tomato seeds (Solanum lycopersicum var. Moneymaker) were sterilized following the protocol described by ([26]). Briefly, tomato seeds were primarily sterilized in 70% ethanol (vol/vol) by gently shaking for 2 min. Further, the ethanol was removed and the seeds were added to 50 mL of the sterilization solution [4.5 mL of bleach containing 9.5% (vol/vol) of active chlorine, 0.01 g of Tween 80, and 45.5 mL of sterile water] and gently shaken for 10 min. Seeds were thereafter washed 10 times with water to eliminate sterilization solution residues. […]
All UPLC-MS analyses were performed using an Agilent 1290 Infinity II coupled with a diode array detector and a mass detector (Jet Stream ESI-Q-TOF 6530) in positive mode with the parameters set up as follows: capillary voltage of 3.5 kV, nebulizer pressure of 35 lb/in^2, drying gas of 8 L/min, drying gas temperature of 300°C, flow rate of sheath gas of 11 L/min, sheath gas temperature of 350°C, fragmentor voltage of 175 V, skimmer voltage of 65 V, and octopole radiofrequency of 750 V. Accurate mass spectra were recorded in the m/z range of 300–1,700. […]

[2] = test system: tobacco cells; settings: cited from earlier work
From the text: Additionally, CLPs are key multifunctional BSMs whose biocontrol-associated activities often involve membrane perturbation and pore formation ([16]). This CLP-membrane interaction is enabled by the peculiar amphiphilic three-dimensional structures of those CLPs ([17], [18]). However, since the degradation alters their structures, it is likely associated with a loss of function. […] Likewise, linearization of su ...

[3] = test system: Streptomyces venezuelae ATCC 10712; assay: Confrontation assay B. velezensis GA1 / S. venezuelae on REM plate, UPLC-MS metabolite profiling of the agar
Method: Confrontation assays were performed on square Petri dishes (12 × 12 cm) with 40 mL of REM solid medium at 26°C (REM supplemented with 14 g/L of agar).
S. venezuelae ATCC 10712 was inoculated as stripes (1 × 12 cm) in the middle of the plate with 40 µL of spore suspension (10^7 spores/mL) and spread with a cotton swab. Next, B. velezensis GA1 cells were collected from fresh precultures as described and adjusted to OD600 nm 0.1. Then, 5 µL of B. velezensis GA1 suspension was spotted at 1 cm of the Streptomyces line. Control plates were done following the same procedure without the inoculation of either Bacillus or Streptomyces. Plates were then incubated for 3 days at 26°C in the dark. Pictures of the plates were then captured using a CoolPix camera (NIKKOR ×60 wide optical zoom extra-low dispersion vibration reduction 4.3–258.0 mm 1:33 to 6.5).
The extraction of the metabolites from the agar was performed as follows. For the confrontation experiment, we precisely sampled the area of agar (2 × 1 cm) near the colony of Bacillus or Streptomyces (the confrontation zone is 1 cm wide) with standardized plugs. For the in planta, we sampled the agar area (1 × 1 cm) near the tomato roots. In both cases, the agar samples were transferred to Eppendorf tubes and placed for 24 h at −20°C. Then, the agar was thawed at room temperature and centrifuged for 10 min at 13,000 rpm. The supernatants were then collected and filtered (0.22-µm pore size filters) before UPLC-MS analysis.
All UPLC-MS analyses were performed using an Agilent 1290 Infinity II coupled with a diode array detector and a mass detector (Jet Stream ESI-Q-TOF 6530) in positive mode with the parameters set up as follows: capillary voltage of 3.5 kV, nebulizer pressure of 35 lb/in^2, drying gas of 8 L/min, drying gas temperature of 300°C, flow rate of sheath gas of 11 L/min, sheath gas temperature of 350°C, fragmentor voltage of 175 V, skimmer voltage of 65 V, and octopole radiofrequency of 750 V. Accurate mass spectra were recorded in the m/z range of 300–1,700. For untargeted MS/MS, we used the same MS1 parameters as described. We added MS2 untargeted acquisition mode with the parameters as follows: MS/MS range 50–1,700 m/z; MS/MS scan rate 3 spectra/s; isolation width MS/MS medium (approx. 4 AMU), Decision Engine Native; fixed collision energies of 25 and 40 V for surfactin, 50 V for iturin, and 60 V for fengycin experiments; precursor selection: three for the surfactin experiment, four for the iturin and fengycin experiments, threshold 1,500 (Abs), isotope model common, active exclusion after two spectra and release after 0.5 min, sorting the precursors by charge state then abundance (charge state preference 1). For targeted MS/MS, we used the same MS1 parameters MS/MS range of 50–1,700 m/z or 50–3,200 (when required for Pseudomonas CLPs with mass >1,700 Da), MS/MS scan rate 3 spectra/s, isolation width MS/MS narrow (approx. 1.3 amu), and fixed collision energies 20, 40, and 60V. In all experiments, a C18 Acquity UPLC ethylene bridged hybrid column (2.1 mm × 50 mm × 1.7 µm; Waters Corporation, Milford, MA, USA) was used at a flow rate of 0.6 mL/min and a temperature of 40°C. The injection volume was 20 µL, and the diode array detector scanned a wavelength spectrum between 190 and 600 nm. Unless otherwise mentioned, a gradient of acidified water (0.1% formic acid) (solvent A) and of acidified acetonitrile (0.1% formic acid) (solvent B) was used as mobile phase with a constant flow rate of 0.6 mL/min, starting at 10% B and rising to 100% B in 20 min. Solvent B was kept at 100% for 4 min before going back to the initial ratio. MassHunter Workstation (version 10.0) and ChemStation software were used for data collection and analysis. For untargeted analysis of iturin and fengycin degradation products, we used the same solvent and flow rate, starting at 10% B to 20% in 2 min, then rising to 50% B at 14 min and 100% B at 25 min, followed by 100% B and 5 at 10% B at 6 min.

[4] = test system: Streptomyces; settings: cited from earlier work
From the text: As soils are carbon-rich and nitrogen-poor environments, exogenous CLP degradation may thus represent a foraging strategy for Streptomyces to access alternative sources of nutriments directly emanating from diverse microbial competitors. We assume that, in this ...

surfactin
linear forms in rhizosphere extracts upon co-inoculation of Bv with Sv [1]: high proportion of linear
effect of linearization on the potential to stimulate immune-related defense responses [2]: almost full loss
abundance of the CLP in the confrontation zone compared with monocultures [3]: decrease in the abundance
shorter CLP fragment detected in the confrontation zone but not in Bv monoculture [3]: loss of the fatty acid from the linear form
effect on aerial mycelium formation of Streptomyces [4]: inhibitory effect
